The values that follow come from a melting point compilation (Tetko et al.; mined from patent text by program, amines drawn as free bases though some values may be those of a salt).

A value given as a limit tells only on which side of the number the result lay.

As for `Cc1nc2c3c(ccc2n1C)[C@@H](OCCF)[C@H](O)[C@@H](c1ccccc1)O3`, the melting point was 226 °C.

With `Cc1c(CC(=O)O)c2cc(OCc3csc(-c4ccccc4)n3)ccc2n1Cc1ccc(Cl)cc1`, the melting point was in the range of 150 to 151 °C.

On to `CCCc1nc2c(C)cc(C)nc2n1Cc1ccc(-c2ccccc2-c2c(O)c(=O)c2=O)cc1`, for which the melting point turned out to be 182 °C.

For the compound `CCCNC(=O)CCCCCn1c(CCC)nc2c(N)nc3ccccc3c21`, the melting point lay within 139 to 141 °C.

In turn, `CC1(C)CCOC1=C(n1ccnc1)S(=O)(=O)c1ccc(Cl)cc1` yielded a melting point of 192 to 194 °C.

`c1ccc2c(c1)NCCc1nncn1-2` showed a melting point of 162 to 165 °C.

`Cc1cc(SC2=C(O)CC(CCc3ccncc3)(C(C)C)OC2=O)c(C(C)(C)C)cc1CO` (stereo not given) showed a melting point of 140 to 155 °C.

Take `COc1ccc(C(=O)c2ccccc2)cc1OCCCN1CCC(c2noc3cc(F)ccc23)CC1`: the melting point fell in the range of 140 to 141 °C.

For `CCOC(=O)N1CCC2(CC1)C(=O)NCN2c1ccc(F)cc1`, the melting point is 153 °C.

The compound `Oc1ccc2c(-c3ccccc3)coc2c1` gave a melting point of 138 to 143 °C.

Take `C=Cc1ccc(NS(C)(=O)=O)cc1`: the melting point was 97 °C.

Compound `O=C(O)Cc1ccc2cc(O)ccc2c1` came in with a melting point of 208 to 210 °C.

`NC1=NN(c2ccc(Cl)c(Cl)c2)CC1` came in with a melting point of 182 to 184 °C.

As for `COc1cc(OC)c(-c2cc3ccccc3s2)cc1C=CC(=O)c1cc(OC)c(OC)c(OC)c1`, the melting point lay within 194 to 196 °C.

Consider `COc1cc2c(cc1OC)[C@@H]1CN(C)CC[C@@H]1N=C2c1ccc(NC(C)=O)cc1` (relative stereo), for which the melting point is 173 to 175 °C.

In the case of `COCn1c(C(O)(c2ccc(Cl)cc2)c2ccc(Cl)cc2)nc(C)c1C`, the melting point was 151 °C.

`Cc1nc(-c2ccc(C#N)cc2)sc1C(=O)N(CC(=O)O)[C@H](C)[C@](O)(Cn1cncn1)c1ccc(F)cc1F` yielded a melting point of 153 to 159 °C.

`COc1ccc(/C=C/C(=O)C#CC(=O)O)cc1` came in with a melting point of 98 to 100 °C.

The compound `CC(C)C[C@H](NC(=O)C12CC3CC(CC(C3)C1)C2)C(=O)NCC(N)=O` came in with a melting point of 123 to 127 °C.

The compound `O=C(O)CCC(=O)c1ccc(NC(=O)CCCl)cc1` had a melting point of 181 to 182 °C.

Take `CCCO/N=C(\C(=O)OC)c1csc(NC(=O)CCl)n1`: the melting point fell in the range of 86 to 87 °C.

The compound `Nc1ncccc1OCc1ccccc1Cl` displayed a melting point of 95 to 100 °C.

In turn, `CC(C)(C)OC(=O)Nc1ccc(C#Cc2ccc(F)cc2F)cc1N` returned a melting point of 113 to 116 °C.

Take `O=C(NC(=O)c1c(F)cccc1F)Nc1cc(Cl)c(OC(F)(F)C(F)Cl)c(Cl)c1` (stereo not given): the melting point lay within 178 to 180 °C.

For `Cn1c(C2CC2)nc2c1CCCC2=O`, the melting point stood at 108 °C.

`Nc1ccccc1NC(=O)c1ccc(CCC(=O)NCc2cccnc2)cc1` registered a melting point of 168 to 170 °C.

The compound `CC(=O)c1c(-c2ccc(F)cc2)sc(-c2ccncc2)c1C` showed a melting point of 116 to 118 °C.

Compound `CC(=CC(=O)c1ccc(C(F)(F)F)cc1[N+](=O)[O-])N(C)C` yielded a melting point of 122 °C.

As to `CCOC(=O)C(NC(=O)CNC(=O)CCl)C(=O)OCC`, the melting point lay within 104 to 105 °C.

`Cc1oc(-c2ccccc2)nc1COc1cncc(CCl)c1` returned a melting point of 98 to 99 °C.

For the compound `O=C1Nc2ccc(C#CCCN3CCC(Cc4ccccc4)CC3)cc2C1=O`, the melting point was 140 to 141 °C.

Compound `CC1(C)NCCc2c1oc1cc(I)ccc21` had a melting point of 97 to 98 °C.

Compound `N#Cc1ccc2c(c1)S(=O)(=O)c1ccccc1C=C2` had a melting point of 229 to 231 °C.

On to `CC(=O)CC(=S)Nc1ccccc1`, for which the melting point is 125 °C.

In turn, `CN1C2CCCC1CC(NC(=O)c1cccc3oc(-c4ccc(Cl)cc4)nc13)C2` (stereo not given) had a melting point of 185 to 187 °C.

Take `Cc1ccc(C2=CCCNC2)nc1C`: the melting point fell in the range of 102 to 104 °C.

Take `CC(C)(C)c1nc2cc(N3CCN(S(C)(=O)=O)CC3)c([N+](=O)[O-])cc2s1`: the melting point is 195 to 197 °C.

In turn, `CC[C@@]12C[C@H](O)[C@](O)(c3c(F)cccc3F)C[C@H]1CCc1cc(O)ccc12` displayed a melting point of 198 to 200 °C.

`CC1(C)CCC(C)(C)c2cc(-c3cc(-c4ccc(C=O)cc4)ccc3-c3ccccc3)ccc21` showed a melting point of 120 to 122 °C.

In the case of `Cc1ccccc1C1(c2ccc(OC(F)F)cc2)N=C(N)N(C)C1=O` (stereo not given), the melting point lay within 85 to 90 °C.

With `COc1cc(C(OC)OC)cc([N+](=O)[O-])c1O`, the melting point was 58 to 59 °C.

`Cc1occc(=O)c1OCc1ccccc1` had a melting point of 51 to 52 °C.

`Cc1cc(O)nn1-c1ccc(Cl)c(Cl)c1`: the melting point is 208 to 211 °C.

Compound `NS(=O)(=O)c1cccc(NC(=O)c2cnn3c(C(F)F)cc(-c4ccc(C(F)(F)F)c(F)c4)nc23)c1` returned a melting point of 262 °C.

`Cn1nc(-c2ccc(Cl)cc2F)cc1O` displayed a melting point of 204 °C.

`O=C(O[C@@H]1[C@@H](Br)C[C@]2(O)C[C@H]1OC2=O)c1ccccc1` came in with a melting point of 142 to 143 °C.

The compound `CNc1ncccc1C(=O)Nc1ccc2c(c1)-c1c(c(C(N)=O)nn1-c1ccc3c(c1)OCO3)CC2` gave a melting point of 273 to 275 °C.

With `Clc1ccc(NC2=Nc3ccccc3CS2)cc1Cl`, the melting point lay in the range of 207 to 208 °C.

Compound `O=C(O)c1ccc(Oc2ccc(Cl)cc2)cc1` gave a melting point of 161 to 164 °C.

`CCOC(=O)CCCCCCOc1cc2c(c(Cl)c1Cl)C(=O)C(C)(C1CCCC1)C2` (stereo not given) gave a melting point of 47 to 50 °C.

`CCn1c2ccccc2c2c(N)c(C(=O)OC)c(C)nc21` displayed a melting point of 108 to 110 °C.

Turning to `CC(O)C#Cc1ccc(Cl)cc1` (stereo not given), the melting point was 71 to 72 °C.

`CC1(C)OC(=O)Nc2ccc(-c3cc(F)cc(F)c3)cc21` showed a melting point of 218 to 219 °C.

`Clc1ccc(CS[C@H]2CO[C@H](c3ccccc3)OC2)cc1` showed a melting point of 95 to 99 °C.

`O=C1OCCN1CCCC(c1cc(F)ccc1F)S(=O)(=O)c1ccc(Cl)cc1` (stereo not given) gave a melting point of 156 to 159 °C.

As for `O=C(c1cc(C(F)(F)F)cc(C(F)(F)F)c1)N1CCC2(CC1)C(=O)NCN2c1ccc(Cl)cc1`, the melting point fell in the range of 233 to 235 °C.

With `COc1ccc(C(=O)Nc2nc3ccc(N)cc3c(NCc3cccs3)c2C#N)cc1`, the melting point is 200 to 203 °C.

Compound `NC(=O)N1CCC(OCCN2CCCCC2)C1` (stereo not given) yielded a melting point of 134 to 136 °C.

As to `CSc1ccccc1NC(=O)Nc1ccc(N2CCN(C(=O)Nc3ccc(OCCO)cc3C(F)(F)F)CC2)cc1`, the melting point fell in the range of 115 to 116 °C.

As for `CC1(C)C(=O)N(C(=O)NCC2CCN(CC3(C(=O)O)CCC3)CC2)c2cc(F)ccc21`, the melting point came to 193 °C.

As for `O=C(NCCCCC1CCSS1)N1CCCCC1` (stereo not given), the melting point was in the range of 90 to 91 °C.

For the compound `CCC(=O)SCC(C)C(=O)N1C(C(=O)O)CC2CCCCC21` (stereo not given), the melting point fell in the range of 170 to 172 °C.

Compound `CCOC(=O)Cc1cccc(N[C@@H](CCC(N)=O)C(=O)O)c1` showed a melting point of 176 °C.

As to `CSC1=NC2C=C(C(=O)NCC3CC3)C(NC(=O)c3cc(C(F)(F)F)nn3-c3ncccc3Cl)=C(Cl)C2S1` (stereo not given), the melting point was 221 to 223 °C.

The compound `Cc1nccn1-c1nc(-c2ccc(Cl)cc2)c(CCCN2C(=O)COC2=O)o1` displayed a melting point of 152 to 153 °C.

Regarding `CCOc1nn(-c2ccc(C(F)(F)F)cn2)cc1CCCOc1ccccc1CC(=O)O`, the melting point was in the range of 83 to 84 °C.

Regarding `CC(=O)/C=C1/C(=O)N(c2ccccc2)C1c1ccccc1` (stereo not given), the melting point came out at 158 °C.

For `CC1CCc2c(c(OCc3ccccn3)nn3c(-c4ccccc4)nnc23)C1` (stereo not given), the melting point lay in the range of 152 to 154 °C.

Regarding `COC(=O)c1[nH]c2c(C)ccc(Cl)c2c1C(=O)OC`, the melting point lay in the range of 173 to 174 °C.

For `COc1ccc(C=CC(=O)c2c(O)cc(OC)cc2OC)cc1`, the melting point is 111 °C.

`CC(C)C(=O)Oc1cccc2c(-c3ccccc3)c3cccc(OC(=O)C(C)C)c3c(OC(=O)C(C)C)c12`: the melting point worked out at 224 °C.

Take `O=[N+]([O-])c1ccc(Sc2ccc(OCC3CO3)cc2)cc1` (stereo not given): the melting point is 96 to 99 °C.

As to `O=C(O)/C=C/c1ccc(C(=C2CCCCCC2)c2ccc(O)c(Cl)c2)cc1`, the melting point lay in the range of 155 to 156 °C.

Consider `CCCCCCCCCCCCc1cn(C(C(=O)O)c2ccccc2)cn1` (stereo not given), for which the melting point lay within 110 to 118 °C.

As for `CO/C=C(/C(=O)OC)c1cccnc1Oc1cccc(C=O)c1`, the melting point is 84 to 86 °C.

`COc1ccccc1SC1CC(=O)N1` (stereo not given) displayed a melting point of 103 to 105 °C.

On to `Cc1cc(=O)n(-c2cc3c(cc2F)OC(CC#N)C(=O)N3)c(=O)[nH]1` (stereo not given), for which the melting point was > 230 °C.

Take `C=CCOc1c(C(C)=O)ccc(OCCCOc2ccc3cc(C(=O)OC)oc3c2C)c1CCC`: the melting point was in the range of 80 to 83 °C.

`CC(C)CC=CC(C)C1CCC2C3=CC=C4CC(O)CCC4(C)C3CCC21C` (stereo not given): the melting point was in the range of 120 to 122 °C.

Compound `N=c1sc2cc(OC(F)(F)F)ccc2n1CCSc1ccccn1` gave a melting point of 104 °C.

`C=CC(=O)CC1CN=C(c2cc3cccc(N(C)S(=O)(=O)c4cccs4)c3[nH]2)S1` (stereo not given) came in with a melting point of 157 to 158 °C.

On to `CN(O)C(=O)NCCCOc1ccc(-c2ccccc2)cc1`, for which the melting point lay in the range of 161 to 162 °C.

As for `CN(CCSc1ccc(C=C2SC(=O)NC2=O)cc1)c1nc2ccccc2o1`, the melting point was 189 °C.

With `CCOC(=O)C(=CNC1CC1)C(=O)c1cc(F)c(F)cc1Cl`, the melting point is 55 to 58 °C.

As to `Cc1nc(O)sc1-c1cn2cccnc2n1`, the melting point is > 300 °C.

Compound `CCCCCCC1=CC(O)(C(Br)Br)N(c2ccccc2)C1=O` (stereo not given) showed a melting point of 43 to 45 °C.

In turn, `CC(C)(C)OC(=O)NC(=N)NC(=O)c1cccc(P(c2ccccc2)c2ccccc2)c1` displayed a melting point of 79 to 82 °C.

In turn, `CC(C)(C)OC(=O)[C@H]1C[C@@H](C(=O)OCc2ccccc2)[C@@H](c2ccccc2)N1C(=O)CNC(=O)Nc1cccc(C(=O)OCc2ccccc2)c1` (racemic) gave a melting point of 110 °C.

Compound `CC(O)(CC(=O)O)CC(=O)O` showed a melting point of 108 °C.

In the case of `N#Cc1cccc(N2C(=O)CC(=O)Nc3c2ccc2c3CCC2)c1`, the melting point lay within 250 to 251 °C.
